From patent US8906868B2, “Aminoglycoside derivatives” (Rempex Pharmaceuticals, Inc., priority 2010, dated 2014)
Converted amounts (≈) assume the structure as drawn. Like-named read-outs stand apart in the source and are kept apart here.

Tests used:
[1] = system: ACM1006 acc(6′)-Ib; assay: microbe, parasite or virus in culture; type: cell-based, Acinetobacter baumannii; settings: Acinetobacter baumannii; Table 4; read-out: Compound MIC on Bacterial Strains: Acinetobacter baumannii ACM1006 acc(6′)-Ib
Description: (§1) To compare microbiological activity of the test compounds, minimum inhibitory concentrations (MIC.s) were determined. Antibiotic MICs were obtained using the broth microdilution method according to Clinical and Laboratory Standards Institute (CLSI) approved guidelines (Methods for dilution antimicrobial susceptibility tests for bacteria that grow aerobically; approved standard—7th ed. CLSI document M7-A7. Clinical and Laboratory Standards Institute, Wayne, Pa., incorporated herein by reference in its entirety). Antibiotics were dissolved as specified by CLSI (Performance standards for antimicrobial susceptibility testing; Seventeenth informational supplement. CLSI document M100-S17. Clinical and Laboratory Standards Institute, Wayne, Pa., incorporated herein by reference in its entirety), and were serially diluted 2-fold in cation adjusted Mueller Hinton Broth (CaMHB) at 2× concentration. Bacterial inoculums were prepared in CaMHB by suspension of a colony from an agar plate that was prepared the previous day to obtain a final concentration of 5×10^5CFU/ml. The plates were incubated for 18 hours at 35° C. […] MIC.s were determined by reading the turbidity of plate wells using a SpectraMax Plus384 plate reader (Molecular Devices, Sunnyvale, Calif., USA) at 600 nm and were confirmed by visual inspection.

[2] = system: EC1002 aph(3′)-IV; assay: organism not typed; type: cell-based; settings: read-out: Compound MIC on Bacterial Strains: EC1002 aph(3′)-IV
Description: as §1
(§2) Activity of the test compounds was determined using QC strains and strains with known aminoglycoside resistance mechanisms (TABLE 3). This specific panel contained strains expressing enzymes that covalently modify N2″, N3 and N3′ positions.

[3] = system: Staphylococcus aureus (ATCC 29213); assay: MIC, broth microdilution; settings: Staphylococcus aureus
[4] = system: Sa 287 aac(6′) + aph(2″); assay: microbe, parasite or virus in culture; type: cell-based, Staphylococcus aureus; settings: Staphylococcus aureus, 18 h; Table 5; read-out: Compound MIC on Bacterial Strains: Staphylococcus aureus Sa 287 aac(6′) + aph(2″)
Description: as §1

[5] = system: ECM6003 rmtB; assay: microbe, parasite or virus in culture; type: cell-based, Escherichia coli; settings: Escherichia coli; Table 3; read-out: Compound MIC on Bacterial Strains: ECM6003 rmtB
Description: as §1, §2
The panel also contained a strain expressing ribosomal RNA methylase, RmtB.

[6] = system: Pseudomonas aeruginosa (ATCC 27853); assay: MIC, broth microdilution; settings: Pseudomonas aeruginosa
[7] = system: ACM1005 ATCC 19004; assay: MIC, broth microdilution; type: cell-based, Acinetobacter baumannii; settings: Acinetobacter baumannii, ATCC19004; Table 4; read-out: Compound MIC on Bacterial Strains: Acinetobacter baumannii ACM1005 ATCC 19004
Description: as §1

[8] = system: ECM6007 aac(6′) + aph(2″); assay: microbe, parasite or virus in culture; type: cell-based, Escherichia coli; settings: Escherichia coli, 18 h; Table 4; read-out: Compound MIC on Bacterial Strains: Escherichia coli ECM6007 aac(6′) + aph(2″)
Description: as §1

[9] = system: EC1001 acc(6′)-Ib; assay: microbe, parasite or virus in culture; type: cell-based, Escherichia coli; settings: Escherichia coli; Table 4; read-out: Compound MIC on Bacterial Strains: Escherichia coli EC1001 acc(6′)-Ib
Description: as §1

[10] = system: Klebsiella pneumonia (ATCC 43816); assay: MIC, broth microdilution; settings: Klebsiella pneumoniae, ATCC43816, read-out: Compound MIC on Bacterial Strains: K. pneumonia ATCC 43816
[11] = system: Escherichia coli (ATCC 25922); assay: MIC, broth microdilution; settings: Escherichia coli
[12] = system: Acinetobacter baumannii (ATCC 19606); assay: MIC, broth microdilution; settings: Acinetobacter baumannii, ATCC19606, read-out: Compound MIC on Bacterial Strains: A. baumannii ATCC 19606
[13] = system: ECM6006 aph(3′)-III; assay: microbe, parasite or virus in culture; type: cell-based, Escherichia coli; settings: Escherichia coli, read-out: Compound MIC on Bacterial Strains: ECM6006 aph(3′)-III
Description: as §1, §2

[14] = system: ECM6010 ant(2″)-I; assay: microbe, parasite or virus in culture; type: cell-based, Escherichia coli; settings: Escherichia coli, read-out: Compound MIC on Bacterial Strains: ECM6010 ant(2″)-I
Description: as §1, §2

[15] = system: ECM6011 aph(3′)-I; assay: microbe, parasite or virus in culture; type: cell-based, Escherichia coli; settings: Escherichia coli, read-out: Compound MIC on Bacterial Strains: ECM6011 aph(3′)-I
Description: as §1, §2

[16] = system: ECM6009 aac(3)-II; assay: microbe, parasite or virus in culture; type: cell-based, Escherichia coli; settings: Escherichia coli, read-out: Compound MIC on Bacterial Strains: ECM6009 aac(3)-II
Description: as §1, §2

[17] = system: PAM3072 aac(6′)-II; assay: microbe, parasite or virus in culture; type: cell-based, Pseudomonas aeruginosa; settings: Pseudomonas aeruginosa, Table 5; read-out: Compound MIC on Bacterial Strains: Pseudomonas aeruginosa PAM3072 aac(6′)-II
Description: as §1

[18] = system: PAM3073 aac(6′)-I; assay: microbe, parasite or virus in culture; type: cell-based, Pseudomonas aeruginosa; settings: Pseudomonas aeruginosa, Table 5; read-out: Compound MIC on Bacterial Strains: Pseudomonas aeruginosa PAM3073 aac(6′)-I
Description: as §1

[19] = ATCC29213, read-out: Compound MIC on Bacterial Strains: S. aureus ATCC 29213, QC strain, Table 2
[20] = ATCC29213, read-out: Compound MIC on Bacterial Strains: Staphylococcus aureus SAM1000 ATCC 29213, Table 5
[21] = ATCC27853, read-out: Compound MIC on Bacterial Strains: P. aeruginosa ATCC 27853
[22] = ATCC27853, read-out: Compound MIC on Bacterial Strains: Pseudomonas aeruginosa PAM3034 ATCC 27853
[23] = ATCC25922, read-out: Compound MIC on Bacterial Strains: E. coli ATCC 25922
[24] = ATCC25922, read-out: Compound MIC on Bacterial Strains: ECM6000 ATCC 25922
[25] = ATCC25922, read-out: Compound MIC on Bacterial Strains: Escherichia coli ECM6000 ATCC 25922

Row | Structure (SMILES) | MIC [1] | MIC [2] | MIC [3, 19] | MIC [3, 20] | MIC [5] | MIC [6, 21] | MIC [6, 22] | MIC [7] | MIC [8] | MIC [9] | MIC [10] | MIC [11, 23] | MIC [11, 24] | MIC [11, 25] | MIC [12] | MIC [13] | MIC [14] | MIC [15] | MIC [16] | MIC [17] | other results
1 | NCC[C@H](O)C(=O)N[C@@H]1C[C@H](N)[C@@H](O[C@H]2O[C@H](CN)[C@@H](O)[C@H](O)[C@H]2O)[C@H](O)[C@H]1O[C@H]1O[C@H](CO)[C@@H](O)[C@H](N)[C@H]1O [Amikacin, reference compound] | 1 to 8 µg/mL (≈ 1.71 to 13.7 µM) | > 8 µg/mL | 1 to 8 µg/mL (≈ 1.71 to 13.7 µM) | < 1 µg/mL | > 8 µg/mL | 1 to 8 µg/mL (≈ 1.71 to 13.7 µM) | 1 to 8 µg/mL (≈ 1.71 to 13.7 µM) | < 1 µg/mL | < 1 µg/mL | > 8 µg/mL | < 1 µg/mL | 1 to 8 µg/mL (≈ 1.71 to 13.7 µM) | 1 to 8 µg/mL (≈ 1.71 to 13.7 µM) | 1 to 8 µg/mL (≈ 1.71 to 13.7 µM) | 1 to 8 µg/mL (≈ 1.71 to 13.7 µM) | 1 to 8 µg/mL (≈ 1.71 to 13.7 µM) | 1 to 8 µg/mL (≈ 1.71 to 13.7 µM) | 1 to 8 µg/mL (≈ 1.71 to 13.7 µM) | < 1 µg/mL |  | MIC [4]: > 8 µg/mL
2 | CN[C@@H]1[C@@H](O)[C@@H](O[C@@H]2[C@@H](O)[C@H](O[C@H]3O[C@H](CNCCF)CC[C@H]3N)[C@@H](N)C[C@H]2NC(=O)[C@@H](O)CN)OC[C@]1(C)O [Compound 46, (S)-3-amino-N-((1R,2S,3S,4R,5S)-5-amino-4-((2R,3R,6S)-3-amino-6-((2-fluoroethylamino)methyl)tetrahydro-2H-pyran-2-yloxy)-2-((2R,3R,4R,5R)-3,5-dihydroxy-5-methyl-4-(methylamino)tetrahydro-2H-pyran-2-yloxy)-3-hydroxycyclohexyl)-2-hydroxypropanamide] | 1 to 8 µg/mL (≈ 1.72 to 13.7 µM) | < 1 µg/mL | < 1 µg/mL | < 1 µg/mL | > 8 µg/mL | 1 to 8 µg/mL (≈ 1.72 to 13.7 µM) | 1 to 8 µg/mL (≈ 1.72 to 13.7 µM) | 1 to 8 µg/mL (≈ 1.72 to 13.7 µM) | < 1 µg/mL | 1 to 8 µg/mL (≈ 1.72 to 13.7 µM) | < 1 µg/mL | < 1 µg/mL | < 1 µg/mL | < 1 µg/mL | > 8 µg/mL | < 1 µg/mL | < 1 µg/mL | < 1 µg/mL | < 1 µg/mL | > 8 µg/mL | MIC [18]: 1 to 8 µg/mL (≈ 1.72 to 13.7 µM)
3 | CN[C@@H]1C(O)[C@@H](OC2C(O)C(O[C@H]3O[C@H](CN)CCC3N)[C@@H](N)C[C@H]2NC(=N)CO)OCC1(C)O (stereo partly drawn) [Compound 22, N-((1R,2S,3S,4R,5S)-5-amino-4-((2R,3R,6S)-3-amino-6-(aminomethyl)tetrahydro-2H-pyran-2-vlxy)-2-((2R,3R,4R,5R)-3,5-dihydroxy-5-methyl-4-(methylamino)tetrahydro-2H-pyran-2-yloxy)-3-hydroxycyclohexyl)-2-hydroxy acetimidamide] | > 8 µg/mL | 1 to 8 µg/mL (≈ 1.97 to 15.8 µM) | < 1 µg/mL | < 1 µg/mL | > 8 µg/mL | < 1 µg/mL | 1 to 8 µg/mL (≈ 1.97 to 15.8 µM) | 1 to 8 µg/mL (≈ 1.97 to 15.8 µM) | 1 to 8 µg/mL | > 8 µg/mL | < 1 µg/mL | 1 to 8 µg/mL (≈ 1.97 to 15.8 µM) | 1 to 8 µg/mL (≈ 1.97 to 15.8 µM) | 1 to 8 µg/mL (≈ 1.97 to 15.8 µM) | > 8 µg/mL | 1 to 8 µg/mL (≈ 1.97 to 15.8 µM) | > 8 µg/mL | 1 to 8 µg/mL (≈ 1.97 to 15.8 µM) | > 8 µg/mL | > 8 µg/mL | MIC [18]: 1 to 8 µg/mL (≈ 1.97 to 15.8 µM)
